Laboratory results reported in patent US6544967B2, “Method for inhibiting bone resorption” (Merck & Co., Inc., priority 1997, dated 2003).

System: canine esophagus tissue
Test: Esophageal irritation potential, dog model (esophageal infusion in simulated gastric juice, histopathology)
Assay type: in vivo
Conditions: for Histopathology of esophagus (photomicrographs): 50 mL; for Esophageal irritation potential: low dosages on consecutive days (Group 7 risedronate, Group 8 tiludronate)
Description: The esophageal irritation potential of the bisphosphonates is evaluated using a dog model.
The following solutions are prepared:
(1) simulated gastric juice (pH about 2), i.e. the control solution.
(5) simulated gastric juice (pH about 2) containing about 0.20 mg/mL of risedronate sodium on a risedronic acid active basis.
(6) simulated gastric juice (pH about 2) containing about 4.0 mg/mL of tiludronate disodium on a tiludronic acid active basis.
The simulated gastric juice is prepared by dissolving about 960 mg of pepsin (L-585,228000B003, Fisher Chemical) in about 147 mL of 0.90 (wt %) NaCl (aqueous), adding about 3 mL of 1.0 M HCl (aqueous), and adjusting the volume to about 300 mL with deionized water. The pH of the resulting solution is measured and if necessary is adjusted to about 2 using 1.0 M HCl (aqueous) or 1.0 M NaOH (aqueous).
The animals used in the experiments are anesthetized and administered about 50 mL of the appropriate solution over about 30 minutes by infusion into the esophagus using an infusion pump and a rubber catheter. The following treatment experiments are run:
Group 1: This control group contains four animals. Each animal is administered a dosage of about 50 mL of simulated gastric juice [solution (1)] on each of five consecutive days. The animals are sacrificed immediately after the last dose is administered.
Group 2: This group contains four animals. […] The animals are sacrificed immediately after the last dose is administered.
Group 3: This group contains five animals. […] The animals are sacrificed about 24 hours after the dose is administered.
Group 4: This group contains five animals. […] The animals are sacrificed about 7 days after the dose is administered.
Group 5: This group contains six animals. […] The animals are administered a total of four dosages. The animals are sacrificed about 7 days after the last dose is administered.
Group 6: This group contains six animals. […] The animals are administered a total of eight dosages. The animals are sacrificed about four days after the last dose is administered.
Group 7: This group contains eight animals. Each animal is administered a dosage of about 50 mL of simulated gastric juice containing about 0.20 mg/mL of risedronate [solution (5)] on each of five consecutive days. The animals are sacrificed immediately after the last dose is administered.
Group 8: This group contains four animals. Each animal is administered a dosage of about 50 mL of simulated gastric juice containing about 4.0 mg/mL of tiludronate on each of five consecutive days. The animals are sacrificed immediately after the last dose is administered.
The esophagus from each sacrificed animal is removed and prepared for histopathology using standard techniques by embedding the tissue in paraffin, staining with hematoxylin and eosin. The sections are examined microscopically.

| SMILES | Histo-pathology (Group 2 (n = 4): 0.20 mg/mL, 50 mL in simulated gastric juice pH about 2, 1X daily for 5 days, sacrifice immediately after last dosing, monosodium trihydrate) | Histo-pathology (Group 3 (n = 5): 0.80 mg/mL, 50 mL in simulated gastric juice, 1X, sacrifice 24 hours after dosing, monosodium trihydrate) | Histo-pathology (Group 4 (n = 5): 0.80 mg/mL, 50 mL in simulated gastric juice, 1X, sacrifice 7 days after dosing, monosodium trihydrate) | Histo-pathology (Group 5 (n = 6): 0.80 mg/mL, 50 mL in simulated gastric juice, 1X weekly for a total of 4 doses, sacrifice 7 days after last dosing, monosodium trihydrate) | Histopathology of esophagus (photomicrographs) (Group 6: 0.40 mg/mL, twice per week for four weeks (eight dosages), sacrifice about four days after last dose) | Histo-pathology (Group 7 (n = 8): 0.20 mg/mL, 50 mL in simulated gastric juice, 1X daily for 5 days, sacrifice immediately after last dosing) | Esophageal irritation potential | Histopathology of esophagus (photomicrographs) (Group 8: 4.0 mg/mL, five consecutive days, sacrifice immediately after last dose) |
| --- | --- | --- | --- | --- | --- | --- | --- | --- |
| NCCCC(O)(P(=O)(O)O)P(=O)(O)O [Alendronate, 4-amino-1-hydroxybutylidene-1,1-bisphosphonic acid monosodium trihydrate] | deep ulceration of the epithelial surface and marked submucosal inflammation and vacuolation | intact epithelial surface with very slight submucosal inflammation and vacuolation | intact epithelium with either minimal inflammation (two of the five animals) or no inflammation (three of the five animals) and no vacuolation | normal with an intact epithelium and absence of inflammatory cells in the submucosa | deep ulceration of the epithelial surface and marked submucosal inflammation and vacuolation |  |  |  |
| O=P(O)(O)C(O)(Cc1cccnc1)P(=O)(O)O [Risedronate, 1-hydroxy-2-(3-pyridinyl)-ethylidene-1,1-bisphosphonic acid] |  |  |  |  |  | deep ulceration of the epithelial surface and marked submucosal inflammation and vacuolation | high |  |
| O=P(O)(O)C(Sc1ccc(Cl)cc1)P(=O)(O)O [Tiludronate, (4-chlorophenyl)thiomethane-1,1-disphosphonic acid] |  |  |  |  |  |  | high | slight ulceration of the epithelial surface and slight submucosal inflammation and vacuolation |
